Patent US12053513B2, “Cancer-specific T-cell receptors” (UNIVERSITY COLLEGE CARDIFF CONSULTANTS LTD., priority 2018, dated 2024)

Assays:
Type in all cases: cell-based, human
[1] = system: CD8+ T-cells from HLA A2+ healthy donors; test: Priming of CD8+ T-cells from healthy donors, tetramer staining; details: three healthy donors, tetramers, compared to WT peptides
Experimental: To generate T-cell peptide lines, CD8 T-cells were purified from the PBMCs of HLA A2+ donors using CD8 microbeads according to the manufacturer's instructions (Miltenyi Biotech, Bergisch Gladbach, Germany). Purified CD8 cells (3×10^6) were co-incubated with autologous CD8neg cells (6-8×10^6) in 24 well plates in 2 mL of T-cell media, but with no IL-15. 25 μM of each peptide was used. The cultures had 50% of the media changed thrice weekly. Tetramer staining was performed as above, using 500,000 cells per tube. Each T-cell line was used in an IFNγ enzyme linked immunosorbent spot (ELISpot) assay with cell lines MDA-MB-231, melanoma MM909.24 and Saos-2. 50,000 T-cells and 15,000 cancer cells were used per well. Incubation was performed for 48 h, and the assay developed according the manufacturer's instructions (Mabtech, Nacka Strand, Sweden).
CPL assay of CR24 was performed as described above. Candidate peptide agonists were designed using the CR24 CPL and an online algorithm (wsb.warwick.ac.uk/wsbcToolsWebpage/user_cases.php). Priming of CD8 T-cells from healthy donors, tetramer staining and chromium release cytotoxicity assays were performed as described above.

[2] = system: autologous melanoma cells; test: Chromium release cytotoxicity assay of peptide primed T-cell lines; details: patient 37; compared to WT Melan A peptide primed T-cells
CLL cells = test: Killing assay with primed T-cells from CLL patient 3; details: compared to IMP-2 primed CD8s
From the text: (§1) (FIG. 14A) CD8 T-cells from a renal cell carcinoma (RCC) and chronic lymphocytic leukaemia (CLL) patient were left unprimed or primed with […] (SEQ ID NO: 80) peptide for 28 days. […] (SEQ ID NO: 80) peptide for 28 days.

[3] = system: CD8 T-cells from an acute myeloid leukaemia (AML) patient and two CLL patients; test: Priming of CD8 T-cells from AML and CLL patients, IMP-2 tetramer; details: primed 28 days, versus unprimed
[4] = system: CD8 T-cells from a renal cell carcinoma (RCC) and chronic lymphocytic leukaemia (CLL) patient; test: Priming of CD8 T-cells from RCC and CLL patients, TAPI-0 assay or tetramer staining; details: primed 28 days
From the text: as §1

autologous cancer cells = test: Killing of autologous cancer cells by primed CD8s (RCC and CLL patient); details: compared to unprimed T-cells
From the text: as §1

Sequence | priming of Melan A, BST2 and IMP2 T-cells [1] | lysis of autologous melanoma cells by primed T-cells [2] | killing of CLL cells by primed T-cells (CLL cells) | proportion of IMP-2 specific T-cells after priming [3] | MTSAIGILPV specific T-cells after priming [4] | priming of Melan A, BST2 and IMP2 T-cells ([1]; listed as MTSAIGVLVP) | killing of autologous cancer cells by primed CD8s (autologous cancer cells)
ITSAIGILPV (listed as Homo sapiens) [APL 2] | exhibiting effect across each donor | – | – | – | – | – | –
MTSAIGILPV (listed as Homo sapiens) [APL 5] | most effective super-agonist | superior lysis | killed more CLL cells than the IMP-2 primed CD8s | induced a greater proportion of IMP-2 cells | presence | most effective of the candidate super-agonists at priming | killed more autologous cancer cells than the unprimed T-cells
